Literature values, collected in publication PMC12308805, “Ultrahigh-Throughput Virtual Screening Strategies against PPI Targets: A Case Study of STAT Inhibitors” (Journal of Chemical Information and Modeling, 2025).
Numbered stars: 1 amine (or outer) side, 2 acyl side, 3 side chain; on linkers, the order of the positions; unused ones are H or OH. Square brackets hold non-standard residues; d marks the D form. Peptide text beside a SMILES is read from it. * marks the point of attachment. X2 = O=C([C@H](Cc1ccc(Cc2nn[nH]n2)cc1)N[*:1])[*:2]; d(pY) = N[C@H](Cc1ccc(OP(=O)(O)O)cc1)C(=O)O; pY = N[C@@H](Cc1ccc(OP(=O)(O)O)cc1)C(=O)O; NH(1R-phenylethyl) = C[C@@H](N*)c1ccccc1; NH(1S-phenylethyl) = C[C@H](N*)c1ccccc1; d(aThr) = C[C@@H](O)[C@@H](N)C(=O)O; Hydrocinnamoyl = O=C(CCc1ccccc1)*; Hyp = O=C(O)[C@@H]1C[C@@H](O)CN1; Cha = N[C@@H](CC1CCCCC1)C(=O)O; Nle = CCCC[C@H](N)C(=O)O; NHBn = c1ccc(CN*)cc1; Propionyl = CCC(=O)*; Bz = O=C(c1ccccc1)*

test system: STAT3; settings: cited from earlier work

Row | SMILES | Type (known STAT3 active)
1 | CC(=O)N[C@H](Cc1ccc(OP(=O)(O)O)cc1)C(=O)N[C@H](CC(C)C)C(=O)N1CCC[C@H]1C(=O)N[C@@H](CCC(N)=O)C(=O)N[C@@H](C)C(=O)N[C@H](C(N)=O)C(C)C [CHEMBL156407] (Ac-[d(pY)][dL]PQAV-NH2) | Active
2 | CC(=O)N[C@@H](Cc1ccc(OP(=O)(O)O)cc1)C(=O)N[C@@H](CC(C)C)C(=O)N1CCC[C@H]1C(=O)N[C@H](CCC(N)=O)C(=O)N[C@@H](C(N)=O)[C@H](C)O [CHEMBL160353] (Ac-[pY]LP[dQ][dT]-NH2) | Active
3 | CCC(=O)N[C@@H](Cc1ccc(OP(=O)(O)O)cc1)C(=O)N[C@@H](CC(C)C)C(=O)N1CCC[C@H]1C(=O)N[C@@H](CCC(N)=O)C(=O)N[C@H](C(N)=O)[C@@H](C)O [CHEMBL197580] (Propionyl-[pY]LPQT-NH2) | Active
4 | CC(C)C[C@H](NC(=O)/C=C/c1ccc(OP(=O)(O)O)cc1)C(=O)N1CCC[C@H]1C(=O)N[C@H](C(=O)NCc1ccccc1)[C@@H](C)OC(N)=O [CHEMBL376795] | Active
5 | CC(=O)N[C@@H](Cc1ccc(OP(=O)(O)O)cc1)C(=O)N[C@@H](CC(C)C)C(=O)N1CCC[C@H]1C(=O)N[C@@H](CCC(N)=O)C(=O)N[C@H](C(N)=O)[C@@H](C)O [CHEMBL382978] (Ac-[pY]LPQT-NH2) | Active

same assay, conditions: sheet 6QHD_actives_decoys; known STAT3 actives of the retrospective screening set; ref ChEMBL / literature; cited from earlier work

Row | SMILES | Type (known STAT3 active)
6 | CC(=O)N[C@@H](Cc1ccc(OP(=O)(O)O)cc1)C(=O)N[C@@H](CC(C)C)C(=O)N1CCC[C@@H]1C(=O)N[C@H](CCC(N)=O)C(=O)N[C@@H](C(=O)N[C@H](C)C(=O)O)[C@@H](C)O [CHEMBL157727] (Ac-[pY]L[dP][dQ][d(aThr)][dA]-OH) | Active
7 | CC(=O)N[C@@H](Cc1ccc(OP(=O)(O)O)cc1)C(=O)N[C@@H](CC(C)C)C(=O)N1CCC[C@H]1C(=O)N[C@H](CCC(N)=O)C(N)=O [CHEMBL160658] (Ac-[pY]LP[dQ]-NH2) | Active
8 | CSCC[C@H](NC(=O)[C@H](CCC(N)=O)NC(=O)[C@H]1CCCN1C(=O)[C@H](CCCCN)NC(=O)[C@H](Cc1ccc(OP(=O)(O)O)cc1)NC(C)=O)C(=O)N[C@@H](Cc1c[nH]cn1)C(N)=O [CHEMBL160733] (Ac-[pY]K[dP]QMH-NH2) | Active
9 | CC(=O)N[C@@H](Cc1ccc(OP(=O)(O)O)cc1)C(=O)N[C@@H](CC(C)C)C(=O)N1CCC[C@H]1C(=O)N[C@@H](CCC(N)=O)C(=O)N[C@H](C)c1ccccc1 [CHEMBL193433] (Ac-[pY]LPQ-{NH(1R-phenylethyl)}) | Active
10 | CC(=O)N[C@@H](Cc1ccc(OP(=O)(O)O)cc1)C(=O)N[C@@H](CC(C)C)C(=O)N1CCC[C@H]1C(=O)N[C@@H](CCC(N)=O)C(N)=O [CHEMBL194516] (Ac-[pY]LPQ-NH2) | Active
11 | CC(=O)N[C@@H](Cc1ccc(OP(=O)(O)O)cc1)C(=O)N[C@@H](CC(C)C)C(=O)N1CCC[C@H]1C(=O)N[C@@H](CCC(N)=O)C(=O)NCc1ccccc1 [CHEMBL194855] (Ac-[pY]LPQ-NHBn) | Active
12 | CCCC[C@H](NC(=O)[C@H](Cc1ccc(OP(=O)(O)O)cc1)NC(C)=O)C(=O)N1CCC[C@H]1C(=O)N[C@@H](CCC(N)=O)C(=O)N[C@H](C(N)=O)[C@@H](C)O [CHEMBL197513] (Ac-[pY][Nle]PQT-NH2) | Active
13 | CC(C)C[C@H](NC(=O)[C@H](Cc1ccc(OP(=O)(O)O)cc1)NC(=O)CCc1ccccc1)C(=O)N1CCC[C@H]1C(=O)N[C@@H](CCC(N)=O)C(=O)N[C@H](C(N)=O)[C@@H](C)O [CHEMBL197844] (Hydrocinnamoyl-[pY]LPQT-NH2) | Active
14 | C1=Cc2nc1cc1ccc([nH]1)c(-c1ccccc1)c1nc(cc3ccc([nH]3)c2-c2ccccc2)C=C1 [CHEMBL207155] | Active
15 | CC(=O)N[C@@H](Cc1ccc(OC(C(=O)O)C(=O)O)cc1)C(=O)N[C@@H](CC(C)C)C(=O)N1CCC[C@H]1C(=O)N[C@@H](CCC(N)=O)C(=O)N[C@H](C(=O)N[C@H](C(=O)O)C(C)C)[C@@H](C)O [CHEMBL231705] | Active
16 | CC(=O)N[C@@H](Cc1ccc(Cc2nn[nH]n2)cc1)C(=O)N[C@@H](CC(C)C)C(=O)N1CCC[C@H]1C(=O)N[C@@H](CCC(N)=O)C(=O)N[C@H](C(=O)N[C@H](C(=O)O)C(C)C)[C@@H](C)O [CHEMBL233355] (Ac-[X2]LPQTV-OH) | Active
17 | CC(C)C[C@H](NC(=O)/C=C/c1ccc(OP(=O)(O)O)cc1)C(=O)N1CCC[C@H]1C(=O)N[C@@H](CCC(N)=O)C(=O)NCc1ccccc1 [CHEMBL267246] | Active
18 | CSCC[C@H](NC(=O)[C@H](C)NC(=O)[C@H](CCC(N)=O)NC(=O)[C@@H]1CCCN1C(=O)[C@@H](CCCN=C(N)N)NC(=O)[C@@H](Cc1ccc(OP(=O)(O)O)cc1)NC(C)=O)C(N)=O [CHEMBL345419] (Ac-[d(pY)][dR]PQAM-NH2) | Active
19 | CNC(=O)[C@H](CCC(N)=O)NC(=O)[C@@H]1CCCN1C(=O)[C@H](CC(C)C)NC(=O)[C@H](Cc1ccc(OP(=O)(O)O)cc1)NC(C)=O [CHEMBL370095] (Ac-[pY]LPQ-NHMe) | Active
20 | CC(=O)N[C@@H](Cc1ccc(OP(=O)(O)O)cc1)C(=O)N[C@@H](CC(C)C)C(=O)N1CCC[C@H]1C(=O)N[C@@H](CCC(N)=O)C(=O)N[C@@H](C)c1ccccc1 [CHEMBL370208] (Ac-[pY]LPQ-{NH(1S-phenylethyl)}) | Active
21 | CC(C)C[C@H](NC(=O)[C@H](Cc1ccc(OP(=O)(O)O)cc1)NC(=O)CCc1ccccc1)C(=O)N1C[C@H]2C[C@H]2[C@H]1C(=O)N[C@@H](CCC(N)=O)C(=O)NCc1ccccc1 [CHEMBL370763] | Active
22 | CC(=O)N[C@@H](Cc1ccc(OP(=O)(O)O)cc1)C(=O)N[C@@H](CC1CCCCC1)C(=O)N1CCC[C@H]1C(=O)N[C@@H](CCC(N)=O)C(=O)N[C@H](C(N)=O)[C@@H](C)O [CHEMBL371871] (Ac-[pY][Cha]PQT-NH2) | Active
23 | CC(=O)N[C@@H](Cc1ccc(OP(=O)(O)O)cc1)C(=O)N[C@@H](CC(C)C)C(=O)N1C[C@H](O)C[C@H]1C(=O)N[C@@H](CCC(N)=O)C(=O)N[C@H](C(N)=O)[C@@H](C)O [CHEMBL372429] (Ac-[pY]L[Hyp]QT-NH2) | Active
24 | CC(=O)N[C@@H](Cc1ccc(OP(=O)(O)O)cc1)C(=O)N[C@@H](CC(C)C)C(=O)N1CCC[C@H]1C(=O)N[C@@H](CCC(N)=O)C(=O)O [CHEMBL382544] (Ac-[pY]LPQ-OH) | Active
25 | CC(C)C[C@H](NC(=O)/C=C/c1ccc(OP(=O)(O)O)cc1)C(=O)N1CCC[C@H]1C(=O)N[C@@H](COC(N)=O)C(=O)NCc1ccccc1 [CHEMBL414034] | Active
26 | CC(=O)N[C@@H](Cc1ccc(OCC(=O)O)cc1)C(=O)N[C@@H](CC(C)C)C(=O)N1CCC[C@H]1C(=O)N[C@@H](CCC(N)=O)C(=O)N[C@H](C(=O)N[C@H](C(=O)O)C(C)C)[C@@H](C)O [CHEMBL414897] | Active
27 | CC(C)C[C@H](NC(=O)[C@H](Cc1ccc(OP(=O)(O)O)cc1)NC(=O)c1ccccc1)C(=O)N1CCC[C@H]1C(=O)N[C@@H](CCC(N)=O)C(=O)N[C@H](C(N)=O)[C@@H](C)O [CHEMBL425571] (Bz-[pY]LPQT-NH2) | Active
